What follows are compounds tested against T1, Human Cereblon WT GST-tagged protein (Homo sapiens, UniProt Q96SW2) (assay: CRBN binding assay (HTRF method)). Conditions: competition with Thalidomide-Red, 25° C. 1 h.
T1 construct: purchased CISBIO 64BDCRBNPEG
Method: In this experiment, the binding interaction between compounds and CRBN was detected, and based on the IC50 values, the affinity of the compounds for the CRBN target was evaluated.
The affinity of the compounds for CRBN was detected using CEREBLON BINDING KITS (CISBIO, 64 BDCRBNPEG) containing diluent #9, Human Cereblon WT GST-tagged protein, GST Eu Cryptate Antibody, and Thalidomide-Red.
20 nL of each of the compounds was transferred to a 384-well plate (PerkinElmer, 6007299) using an Ehco650 apparatus (Beckman, 650). 5 μL of 1× diluent #9 (CISBIO, 64BDCRBNPEG) was added to the 384-well plate, and then 5 μL of 1× Human Cereblon WT GST-tagged protein (CISBIO, 64BDCRBNPEG) was added. The plate was sealed with a plate sealer, shaken on a plate shaker (Kylin-Bell, MH-2) for 10 s, centrifuged at 1000 rpm for 1 min, and incubated at 25° C. for 5 min. 5 μL of 1×GST Eu Cryptate Antibody (CISBIO, 64BDCRBNPEG) and 5 μL of 1× Thalidomide-Red (CISBIO, 64BDCRBNPEG) were added to the 384-well plate. The plate was sealed with a plate sealer, shaken for 30 s, centrifuged at 1000 rpm for 1 min, and incubated at 25° C. for 1 h. The signals at 665 nm and 620 nm were measured using Envision (PerkinElmer, 2105-0020).
The IC50 values for compound activity were calculated using Graphpad Prism9 software based on the compound concentrations and the ratio of the signals at 665 nm and 620 nm. Calculation formula: […]

T1 sequence (Q96SW2 whole entry): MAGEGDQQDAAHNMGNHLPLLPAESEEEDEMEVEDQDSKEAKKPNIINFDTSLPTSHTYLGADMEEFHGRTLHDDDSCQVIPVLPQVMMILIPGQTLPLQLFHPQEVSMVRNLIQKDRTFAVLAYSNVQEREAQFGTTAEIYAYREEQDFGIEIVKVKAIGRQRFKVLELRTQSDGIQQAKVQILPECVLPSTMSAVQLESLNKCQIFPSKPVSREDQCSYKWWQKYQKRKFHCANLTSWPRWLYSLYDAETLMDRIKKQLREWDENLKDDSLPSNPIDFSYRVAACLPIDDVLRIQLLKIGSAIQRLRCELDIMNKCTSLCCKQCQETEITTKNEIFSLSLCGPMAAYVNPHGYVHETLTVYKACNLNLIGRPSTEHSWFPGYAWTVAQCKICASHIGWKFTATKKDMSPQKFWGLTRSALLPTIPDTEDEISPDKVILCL

Structure (SMILES) | IC50
CC/C(NC1CCC(=O)NC1=O)=C1/C(=O)N(C)c2ccc(N)cc21 (racemic) [Compound 6] | ≤ 2000 nM
CC/C(NC1CCC(=O)NC1=O)=C1/C(=O)N(C)c2ccc(N)cc21 (single isomer, unassigned) [Compound 6-A] | ≤ 2000 nM
C/C(NC1CCC(=O)NC1=O)=C1/C(=O)Nc2ccc(Br)cc21 (stereo not shown) [Compound 1] | ≤ 2000 nM
C/C(NC1CCC(=O)NC1=O)=C1/C(=O)N(C)c2ccc(N)cc21 (stereo not shown) [Compound 4] | 2000 to 5000 nM
